Assay results reported in PubChem BioAssay AID2060910 (Molecular Pharmacology Branch, DTP, NCI, 2025).

System: 242566-281-R-J2-PDC complex spheroid viability
Experiment: Anticancer human tumor 242566-281-R-J2-PDC patient-derived pancreatic carcinoma cell line growth inhibition [RAS]
Conditions: for viability, T/C: stronger effect = lower value
Method in brief: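 Agents were tested in combination matrices in half-log decrements from a top concentration at or near clinical Cmax (10 microM if undetermined). Targets were multi-cell spheroids of tumour lines plus HUVEC and MSC stromal cells.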
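Also: spheroids exposed to compound for 7 days before readout.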
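For viability, T/C in this document: 100% = DMSO vehicle control wells.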

**Q.** With `CCC(CC)c1cc(NC2CCC(N)C2)n2nccc2n1` (configuration not stated) + CCn1c(-c2cccnc2C(C)OC)c2c3cc(ccc31)N1CCOC(CC(NC(=O)C(C(C)C)N(C)C(=O)C3(F)CCN(C(=O)C#CC(C)(C)N(C)C)CC3)C(=O)N3CCCC(N3)C(=O)OCC(C)(C)C2)C1 as the compound, how does the IC50 (curve of first compound, second compound 0.000949 µM) read?
**A.** The IC50 was 2760 nM.

**Q.** What about the IC50 (curve of first compound, second compound 0.003 µM) of the same compound?
**A.** Its IC50 is 2750 nM.

**Q.** What about the IC50 (curve of first compound, second compound 0.00949 µM) of the same compound?
**A.** The IC50 was 2180 nM.

**Q.** And the IC50 (curve of first compound, second compound 0.03 µM)?
**A.** The IC50 was 1870 nM.

**Q.** What about the IC50 (curve of first compound, second compound 0.0949 µM) of the same compound?
**A.** Its IC50 is 1670 nM.

**Q.** What about the IC50 (curve of first compound, second compound 0.3 µM) of the same compound?
**A.** Its IC50 is 1500 nM.

**Q.** And the viability, T/C (second compound 0.000949 µM, first compound 0.0316 µM)?
**A.** The viability, T/C was 89.3%.

**Q.** What about the viability, T/C (second compound 0.000949 µM, first compound 0.1 µM) of the same compound?
**A.** The viability, T/C was 91.4%.

**Q.** And the viability, T/C (second compound 0.000949 µM, first compound 0.316 µM)?
**A.** The viability, T/C was 91.1%.

**Q.** What about the viability, T/C (second compound 0.000949 µM, first compound 1 µM) of the same compound?
**A.** Its viability, T/C is 97.8%.

**Q.** What about the viability, T/C (second compound 0.000949 µM, first compound 3.16 µM) of the same compound?
**A.** The viability, T/C was 44.2%.

**Q.** And the viability, T/C (second compound 0.000949 µM, first compound 10 µM)?
**A.** The viability, T/C was 1.81%.

**Q.** What about the viability, T/C (second compound 0.003 µM, first compound 0.0316 µM) of the same compound?
**A.** Its viability, T/C is 97.9%.

**Q.** What about the viability, T/C (second compound 0.003 µM, first compound 0.1 µM) of the same compound?
**A.** The viability, T/C was 112%.

**Q.** What about the viability, T/C (second compound 0.003 µM, first compound 0.316 µM) of the same compound?
**A.** The viability, T/C was 102%.

**Q.** What about the viability, T/C (second compound 0.003 µM, first compound 1 µM) of the same compound?
**A.** Its viability, T/C is 105%.

**Q.** And the viability, T/C (second compound 0.003 µM, first compound 3.16 µM)?
**A.** The viability, T/C was 42.4%.

**Q.** What about the viability, T/C (second compound 0.003 µM, first compound 10 µM) of the same compound?
**A.** Its viability, T/C is 1.8%.

**Q.** And the viability, T/C (second compound 0.00949 µM, first compound 0.0316 µM)?
**A.** Its viability, T/C is 107%.

**Q.** And the viability, T/C (second compound 0.00949 µM, first compound 0.1 µM)?
**A.** The viability, T/C was 77.5%.

**Q.** What about the viability, T/C (second compound 0.00949 µM, first compound 0.316 µM) of the same compound?
**A.** Its viability, T/C is 86.7%.

**Q.** And the viability, T/C (second compound 0.00949 µM, first compound 1 µM)?
**A.** The viability, T/C was 87.6%.

**Q.** What about the viability, T/C (second compound 0.00949 µM, first compound 3.16 µM) of the same compound?
**A.** The viability, T/C was 32%.

**Q.** And the viability, T/C (second compound 0.00949 µM, first compound 10 µM)?
**A.** Its viability, T/C is 2.19%.

**Q.** And the viability, T/C (second compound 0.03 µM, first compound 0.0316 µM)?
**A.** The viability, T/C was 93.3%.

**Q.** And the viability, T/C (second compound 0.03 µM, first compound 0.1 µM)?
**A.** The viability, T/C was 86.3%.

**Q.** What about the viability, T/C (second compound 0.03 µM, first compound 0.316 µM) of the same compound?
**A.** The viability, T/C was 89.9%.

**Q.** And the viability, T/C (second compound 0.03 µM, first compound 1 µM)?
**A.** The viability, T/C was 84.3%.

**Q.** And the viability, T/C (second compound 0.03 µM, first compound 3.16 µM)?
**A.** The viability, T/C was 21.4%.

**Q.** And the viability, T/C (second compound 0.03 µM, first compound 10 µM)?
**A.** Its viability, T/C is 2.92%.

**Q.** And the viability, T/C (second compound 0.0949 µM, first compound 0.0316 µM)?
**A.** The viability, T/C was 106%.

**Q.** What about the viability, T/C (second compound 0.0949 µM, first compound 0.1 µM) of the same compound?
**A.** Its viability, T/C is 96.6%.

**Q.** What about the viability, T/C (second compound 0.0949 µM, first compound 0.316 µM) of the same compound?
**A.** The viability, T/C was 90%.

**Q.** And the viability, T/C (second compound 0.0949 µM, first compound 1 µM)?
**A.** The viability, T/C was 80.5%.

**Q.** What about the viability, T/C (second compound 0.0949 µM, first compound 3.16 µM) of the same compound?
**A.** Its viability, T/C is 12.4%.

**Q.** What about the viability, T/C (second compound 0.0949 µM, first compound 10 µM) of the same compound?
**A.** The viability, T/C was 3.14%.

**Q.** What about the viability, T/C (second compound 0.3 µM, first compound 0.0316 µM) of the same compound?
**A.** Its viability, T/C is 82.4%.

**Q.** What about the viability, T/C (second compound 0.3 µM, first compound 0.1 µM) of the same compound?
**A.** The viability, T/C was 89.8%.

**Q.** And the viability, T/C (second compound 0.3 µM, first compound 0.316 µM)?
**A.** The viability, T/C was 84.7%.

**Q.** And the viability, T/C (second compound 0.3 µM, first compound 1 µM)?
**A.** The viability, T/C was 69.2%.

**Q.** What about the viability, T/C (second compound 0.3 µM, first compound 3.16 µM) of the same compound?
**A.** The viability, T/C was 15.2%.

**Q.** And the viability, T/C (second compound 0.3 µM, first compound 10 µM)?
**A.** Its viability, T/C is 2.62%.

**Q.** For `C=CC(=O)N1CCN(c2nc(OCC3CCCN3C)nc3c(F)c(-c4nc(N)cc(C)c4C(F)(F)F)c(Cl)cc23)C(C)C1` (configuration not stated), which viability, T/C (compound 0.00316 µM) is on record?
**A.** Its viability, T/C is 102% [middle of 12 runs].

**Q.** And the viability, T/C (compound 0.0316 µM)?
**A.** Its viability, T/C is 99.2% [middle of 12 runs].

**Q.** And the viability, T/C (compound 0.1 µM)?
**A.** The viability, T/C was 100% [middle of 12 runs].

**Q.** What about the IC50 (compound alone, run of 07/15/2024) of the same compound?
**A.** The IC50 was greater than 1000 nM.

**Q.** And the IC50 (curve of compound)?
**A.** The IC50 was greater than 1000 nM.
